Publication PMC11558128 (Advanced Science, 2024)
Numbering of substitutions follows the chain as printed. Like-named read-outs stand apart in the source and are kept apart here. Positions of bridges follow the written chain, without caps; N, C: chain ends. Residues, ends and D or L forms follow the SMILES beside them.

Legend:
Experiment in all cases: cell-based
hNav1.7 = molecular target: T1, hNav1.7 (Homo sapiens, UniProt Q15858); settings: whole-cell patch clamp, mean ± S.E.M., SEM
T1 construct: expressed in transfected cells; host or cells: HEK293T
T1 sequence (O60939 30-215): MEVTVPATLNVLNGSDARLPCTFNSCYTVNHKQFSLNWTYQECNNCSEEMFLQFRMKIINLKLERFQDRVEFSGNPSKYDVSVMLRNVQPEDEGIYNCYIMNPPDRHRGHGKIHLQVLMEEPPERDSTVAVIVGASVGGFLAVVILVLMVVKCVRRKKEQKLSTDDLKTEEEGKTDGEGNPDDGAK
T1 sequence (Q15858 other isoform, or with tags, fused parts or gaps): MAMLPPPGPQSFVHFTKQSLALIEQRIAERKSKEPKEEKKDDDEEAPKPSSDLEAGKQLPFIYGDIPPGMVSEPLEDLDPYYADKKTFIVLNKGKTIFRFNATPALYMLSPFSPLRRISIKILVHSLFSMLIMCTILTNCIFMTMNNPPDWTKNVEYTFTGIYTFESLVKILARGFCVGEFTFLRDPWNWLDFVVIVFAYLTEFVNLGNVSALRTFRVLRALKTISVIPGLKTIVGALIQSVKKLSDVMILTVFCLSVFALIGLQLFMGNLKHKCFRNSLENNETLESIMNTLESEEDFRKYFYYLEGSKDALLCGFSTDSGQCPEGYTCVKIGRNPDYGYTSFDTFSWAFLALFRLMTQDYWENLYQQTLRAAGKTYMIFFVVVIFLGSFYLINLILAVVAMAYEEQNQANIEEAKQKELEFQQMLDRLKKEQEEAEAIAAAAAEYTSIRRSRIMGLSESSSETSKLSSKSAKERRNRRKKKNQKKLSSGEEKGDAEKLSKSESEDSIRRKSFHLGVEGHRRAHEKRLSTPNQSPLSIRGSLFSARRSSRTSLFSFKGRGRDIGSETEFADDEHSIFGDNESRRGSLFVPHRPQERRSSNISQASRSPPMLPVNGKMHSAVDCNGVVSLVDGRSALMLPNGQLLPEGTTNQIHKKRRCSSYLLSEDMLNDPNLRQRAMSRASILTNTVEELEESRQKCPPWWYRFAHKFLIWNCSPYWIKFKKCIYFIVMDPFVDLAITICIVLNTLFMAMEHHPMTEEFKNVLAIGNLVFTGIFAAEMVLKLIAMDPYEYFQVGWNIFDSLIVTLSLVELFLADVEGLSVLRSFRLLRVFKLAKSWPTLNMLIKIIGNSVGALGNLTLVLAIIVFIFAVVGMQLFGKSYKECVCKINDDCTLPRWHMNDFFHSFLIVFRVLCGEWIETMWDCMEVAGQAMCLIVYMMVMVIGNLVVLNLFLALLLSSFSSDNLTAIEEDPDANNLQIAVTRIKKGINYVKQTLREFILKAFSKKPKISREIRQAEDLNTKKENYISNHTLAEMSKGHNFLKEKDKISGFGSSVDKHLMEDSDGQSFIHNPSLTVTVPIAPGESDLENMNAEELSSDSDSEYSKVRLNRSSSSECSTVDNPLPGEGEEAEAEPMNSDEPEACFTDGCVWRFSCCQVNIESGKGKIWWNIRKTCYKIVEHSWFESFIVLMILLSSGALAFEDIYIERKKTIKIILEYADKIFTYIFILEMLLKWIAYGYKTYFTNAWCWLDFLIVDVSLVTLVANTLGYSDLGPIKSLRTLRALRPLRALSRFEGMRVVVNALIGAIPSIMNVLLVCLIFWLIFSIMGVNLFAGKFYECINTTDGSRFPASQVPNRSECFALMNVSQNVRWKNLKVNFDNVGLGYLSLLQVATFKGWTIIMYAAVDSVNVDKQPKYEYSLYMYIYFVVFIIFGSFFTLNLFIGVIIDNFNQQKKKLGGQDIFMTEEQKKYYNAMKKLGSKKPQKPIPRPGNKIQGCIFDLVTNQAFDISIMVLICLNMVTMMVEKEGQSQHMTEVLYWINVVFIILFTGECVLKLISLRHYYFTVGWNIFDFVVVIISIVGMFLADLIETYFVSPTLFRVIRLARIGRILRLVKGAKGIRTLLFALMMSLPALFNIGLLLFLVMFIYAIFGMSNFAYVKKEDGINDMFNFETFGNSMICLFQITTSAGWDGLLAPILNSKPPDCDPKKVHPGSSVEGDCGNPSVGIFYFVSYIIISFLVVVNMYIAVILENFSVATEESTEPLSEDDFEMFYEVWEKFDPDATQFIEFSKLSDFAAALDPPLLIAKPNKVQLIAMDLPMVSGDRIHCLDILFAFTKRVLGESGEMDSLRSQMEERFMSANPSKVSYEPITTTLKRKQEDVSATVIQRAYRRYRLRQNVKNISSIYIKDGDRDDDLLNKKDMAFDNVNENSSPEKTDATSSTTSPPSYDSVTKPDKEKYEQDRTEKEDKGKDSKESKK
T1 sequence (Q07699 19-218, further chain): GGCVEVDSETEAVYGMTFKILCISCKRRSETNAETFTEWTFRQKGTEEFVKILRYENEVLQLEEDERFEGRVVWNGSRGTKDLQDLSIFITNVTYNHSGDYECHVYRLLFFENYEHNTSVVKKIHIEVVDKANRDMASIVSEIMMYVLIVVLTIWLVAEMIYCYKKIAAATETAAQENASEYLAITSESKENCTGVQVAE

rKv4.2 M279A = molecular target: T2, rKv4.2 M279A (Rattus norvegicus, UniProt Q63881, M279A); settings: mean ± SEM
T2 construct: expressed in transfected cells; host or cells: HEK293T
T2 sequence (Q63881 1-630 M279A): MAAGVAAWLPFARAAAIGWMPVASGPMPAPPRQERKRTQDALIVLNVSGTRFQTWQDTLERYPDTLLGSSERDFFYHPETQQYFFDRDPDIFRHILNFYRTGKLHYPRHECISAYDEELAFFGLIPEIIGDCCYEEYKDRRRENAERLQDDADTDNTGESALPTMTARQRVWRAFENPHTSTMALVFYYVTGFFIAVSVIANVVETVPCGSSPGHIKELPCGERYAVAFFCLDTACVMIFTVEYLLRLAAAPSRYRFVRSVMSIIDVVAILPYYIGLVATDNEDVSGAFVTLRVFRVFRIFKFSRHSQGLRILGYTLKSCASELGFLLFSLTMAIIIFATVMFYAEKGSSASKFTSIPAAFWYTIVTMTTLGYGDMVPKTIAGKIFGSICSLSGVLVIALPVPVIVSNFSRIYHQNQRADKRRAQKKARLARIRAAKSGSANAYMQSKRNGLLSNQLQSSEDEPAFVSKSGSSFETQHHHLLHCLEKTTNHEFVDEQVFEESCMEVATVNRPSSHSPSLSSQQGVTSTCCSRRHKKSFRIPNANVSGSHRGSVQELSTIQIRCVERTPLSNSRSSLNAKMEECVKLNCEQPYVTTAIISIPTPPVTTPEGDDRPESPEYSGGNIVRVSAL

rKv4.2 E283K = molecular target: T3, rKv4.2 E283K (Rattus norvegicus, UniProt Q63881, E283K); settings: mean ± SEM
T3 construct: expressed in transfected cells; host or cells: HEK293T
T3 sequence (Q63881 1-630 E283K): T2 sequence (Q63881 1-630 M279A) with A279M, E283K

rKv4.2 V278A = molecular target: T4, rKv4.2 V278A (Rattus norvegicus, UniProt Q63881, V278A); settings: mean ± SEM
T4 construct: expressed in transfected cells; host or cells: HEK293T
T4 sequence (Q63881 1-630 V278A): T2 sequence (Q63881 1-630 M279A) with V278A, A279M

rKv4.2 D284K = molecular target: T5, rKv4.2 D284K (Rattus norvegicus, UniProt Q63881, D284K); settings: mean ± SEM
T5 construct: expressed in transfected cells; host or cells: HEK293T
T5 sequence (Q63881 1-630 D284K): T2 sequence (Q63881 1-630 M279A) with A279M, D284K

[1] = HEK293T, hNav1.7 with β1 and β2, held at -90 mV, step to 0 mV, n = 3-7, read-out: IC50 for hNav1.7

SMILES | IC50 (hNav1.7; [1]) [nM] | IC50 (rKv4.2 M279A) [nM] | IC50 (rKv4.2 E283K) [nM] | IC50 (rKv4.2 V278A) [nM] | IC50 (rKv4.2 D284K) [nM] | IC50 (hNav1.7; native toxin isolated from venom, n = 5, read-out: IC50 against hNav1.7, native HNTX-VIIa) [nM] | IC50 (rKv4.2 D284K; SEM) [nM]
CC(C)C[C@H](NC(=O)[C@H](Cc1ccc(O)cc1)NC(=O)[C@@H](NC(=O)[C@H](CCCCN)NC(=O)[C@@H]1CSSC[C@@H]2NC(=O)[C@H](CCC(=O)O)NC(=O)[C@H](CC(N)=O)NC(=O)[C@H](CCCCN)NC(=O)CNC(=O)[C@@H]3CCCN3C(=O)[C@H]([C@@H](C)O)NC(=O)[C@@H]3CSSC[C@H](NC(=O)[C@H](C)NC(=O)[C@H](Cc4ccc(O)cc4)NC(=O)[C@H](CC(N)=O)NC(=O)[C@@H]4CCCN4C(=O)[C@H](CSSC[C@H](NC(=O)CN)C(=O)N[C@@H](CCCCN)C(=O)NCC(=O)N[C@@H](Cc4ccccc4)C(=O)NCC(=O)N[C@@H](CC(=O)O)C(=O)N[C@@H](CO)C(=O)N3)NC2=O)C(=O)N[C@@H](CO)C(=O)N[C@@H](CO)C(=O)N[C@@H](CCCCN)C(=O)N[C@@H](Cc2c[nH]cn2)C(=O)N[C@@H](CCCCN)C(=O)N[C@@H](Cc2c[nH]c3ccccc23)C(=O)N1)C(C)C)C(N)=O [HNTX-III] (H-GCKGFGDSCTPGKNECCPNYACSSKHKWCKVYL-NH2; disulfide 2-17, 9-22, 16-29) | 207 ± 57.2 | 1000 ± 347 | 3000 ± 1000 | 177 ± 63 | > 20000 |  | 
CC[C@H](C)[C@H](NC(=O)[C@H](CCC(=O)O)NC(=O)[C@H](Cc1ccc(O)cc1)NC(=O)[C@H](CCCCN)NC(=O)[C@@H]1CSSC[C@@H]2NC(=O)[C@H](CCC(N)=O)NC(=O)[C@H](CC(=O)O)NC(=O)[C@H](CC(N)=O)NC(=O)[C@H](CO)NC(=O)[C@@H]3CCCN3C(=O)[C@H](CC(N)=O)NC(=O)[C@@H]3CSSC[C@H](NC(=O)[C@H](C(C)C)NC(=O)[C@H](CC(C)C)NC(=O)[C@H](CC(N)=O)NC(=O)[C@H](CO)NC(=O)[C@H](CO)NC(=O)[C@H](CCCCN)NC(=O)[C@H](CSSC[C@H](NC(=O)[C@@H](N)CCC(=O)O)C(=O)N[C@@H](CC(C)C)C(=O)NCC(=O)N[C@@H](Cc4ccccc4)C(=O)NCC(=O)N[C@@H](CCCCN)C(=O)NCC(=O)N3)NC2=O)C(=O)N[C@@H](CO)C(=O)N[C@@H](CCCNC(=N)N)C(=O)N[C@@H](CCCCN)C(=O)N[C@@H](Cc2c[nH]cn2)C(=O)N[C@@H](CCCNC(=N)N)C(=O)N[C@@H](Cc2c[nH]c3ccccc23)C(=O)N1)C(N)=O [HNTX-IV] | 243 ± 42.5 | 167 ± 14 | 5630 ± 1280 | 182 ± 50 | > 20000 |  | 
CC(C)C[C@@H]1NC(=O)[C@H](Cc2c[nH]c3ccccc23)NC(=O)[C@H](Cc2ccc(O)cc2)NC(=O)[C@H](CCCNC(=N)N)NC(=O)[C@@H](NC(=O)[C@@H](N)CCC(=O)O)CSSC[C@@H]2NC(=O)[C@@H]3CSSC[C@@H](C(=O)N[C@H](C(=O)N[C@@H](Cc4c[nH]c5ccccc45)C(=O)N[C@@H](CC(=O)O)C(=O)N[C@@H](Cc4c[nH]c5ccccc45)C(=O)N[C@H](C(=O)N[C@@H](Cc4ccccc4)C(N)=O)[C@@H](C)O)C(C)C)NC(=O)[C@H](Cc4c[nH]c5ccccc45)NC(=O)CNC(=O)[C@H](Cc4c[nH]cn4)NC(=O)[C@H](CCCCN)NC(=O)[C@@H]4CCCN4C(=O)[C@H](CO)NC(=O)[C@H](CSSC[C@H](NC(=O)[C@H]([C@@H](C)O)NC(=O)CNC1=O)C(=O)N[C@@H](CO)C(=O)N[C@@H](CCCCN)C(=O)N[C@@H]([C@@H](C)O)C(=O)NCC(=O)N[C@@H](CC(=O)O)C(=O)N3)NC(=O)[C@H](CO)NC(=O)[C@H](CC(C)C)NC(=O)[C@H](Cc1c[nH]cn1)NC(=O)[C@H](CO)NC2=O [HNTX-VIIa] (H-ECRYWLGTCSKTGDCCSHLSCSPKHGWCVWDWTF-NH2; disulfide 2-16, 9-21, 15-28) | 80.4 ± 19.6 | 42 ± 6 | 62 ± 13 | 53 ± 6 |  | 50.6 ± 4.6 | 47 ± 6
CSCC[C@@H]1NC(=O)CNC(=O)[C@H](CCC(=O)O)NC(=O)[C@@H]2CSSC[C@H](NC(=O)[C@@H](N)Cc3ccc(O)cc3)C(=O)N[C@@H](CCC(N)=O)C(=O)N[C@@H](CCCCN)C(=O)N[C@@H](Cc3c[nH]c4ccccc34)C(=O)N[C@@H](CCSC)C(=O)N[C@@H](Cc3c[nH]c4ccccc34)C(=O)N[C@@H]([C@@H](C)O)C(=O)N[C@H]3CSSC[C@H](NC(=O)[C@H](C(C)C)NC1=O)C(=O)N[C@@H](CCCNC(=N)N)C(=O)N[C@@H](CC(C)C)C(=O)N[C@@H](Cc1c[nH]c4ccccc14)C(=O)N[C@H](C(=O)N[C@@H](CCCCN)C(=O)N[C@@H](CCCCN)C(=O)N[C@@H](CCCCN)C(=O)N[C@@H](CC(C)C)C(=O)N[C@@H](Cc1c[nH]c4ccccc14)C(=O)O)CSSC[C@H](NC(=O)[C@H](CCCCN)NC(=O)[C@H](CCCNC(=N)N)NC(=O)[C@H](CCC(=O)O)NC(=O)[C@H](CO)NC(=O)[C@H](CC(=O)O)NC3=O)C(=O)N2 [ProTx-II] |  | 17 ± 5 | 14 ± 6 | 10 ± 2 |  |  | 20 ± 2
CC[C@H](C)[C@@H]1NC(=O)[C@@H]2CSSC[C@@H]3NC(=O)[C@H](C(C)C)NC(=O)[C@H](CC(C)C)NC(=O)[C@H](CC(N)=O)NC(=O)[C@@H]4CCCN4C(=O)[C@H](CCCNC(=N)N)NC(=O)[C@H](CSSC[C@H](NC(=O)[C@@H](N)CC(=O)O)C(=O)N[C@@H](CC(C)C)C(=O)NCC(=O)N[C@@H](C)C(=O)N[C@@H](Cc4ccccc4)C(=O)N[C@@H](CCCNC(=N)N)C(=O)N[C@@H](CCCCN)C(=O)N2)NC(=O)[C@H](CSSC[C@@H](C(=O)N[C@@H](CCCCN)C(=O)N[C@@H](Cc2ccc(O)cc2)C(=O)N[C@H](C(=O)N[C@@H](Cc2ccccc2)C(N)=O)C(C)C)NC(=O)[C@H](Cc2c[nH]c4ccccc24)NC(=O)[C@H](CCCNC(=N)N)NC(=O)[C@H](Cc2c[nH]cn2)NC(=O)[C@H](C)NC(=O)[C@H](CO)NC(=O)[C@H](CO)NC3=O)NC(=O)[C@H](CCCCN)NC(=O)[C@H](CC(=O)O)NC(=O)[C@H](CC(N)=O)NC(=O)[C@H](CC(=O)O)NC(=O)[C@@H]2CCCN2C1=O [mGpTx1-SA] (H-DCLGAFRKCIPDNDKCCRPNLVCSSAHRWCKYVF-NH2; disulfide 2-17, 9-23, 16-30) | 40.3 ± 3.2 |  |  |  |  |  | 
